Source: ChEMBL document CHEMBL4024706 (Eur J Med Chem, 2017)

Columns and labels:
[1] = target: Interleukin-1 receptor-associated kinase 4 (Homo sapiens) (UniProt Q9NWZ3); assay: Inhibition of wild-type human partial length IRAK4 (M1 to S460 residues) expressed in mammalian expression system assessed as residual activity at 1 uM by Kinomescan method relative to control
[2] = test system: Tyrosine-protein kinase ABL1 (Homo sapiens), P00519 [T315I]; assay: Inhibition of human non-phosphorylated ABL1 T315I mutant (S229 to K512 residues) expressed in mammalian expression system assessed as residual activity at 1 uM by Kinomescan method relative to control
[3] = target: Dual serine/threonine and tyrosine protein kinase (Homo sapiens) (UniProt Q6XUX3); assay: Inhibition of wild-type human full length RIPK5 (M1 to T929 residues) expressed in mammalian expression system assessed as residual activity at 1 uM by Kinomescan method relative to control
[4] = target: Ribosomal protein S6 kinase alpha-3 (Homo sapiens) (UniProt P51812); assay: Inhibition of wild-type human partial length N-terminal RSK2 kinase domain 1 (M1 to D394 residues) expressed in mammalian expression system assessed as residual activity at 1 uM by Kinomescan method relative to control
[5] = target: Insulin-like growth factor 1 receptor (Homo sapiens) (UniProt P08069); assay: Inhibition of wild-type human partial length IGF1R (L972 to D1294 residues) expressed in bacterial expression system assessed as residual activity at 1 uM by Kinomescan method relative to control
[6] = target: Mitogen-activated protein kinase kinase kinase 2 (Homo sapiens) (UniProt Q9Y2U5); assay: Inhibition of wild-type human partial length MAP3K2 (S315 to H619 residues) expressed in mammalian expression system assessed as residual activity at 1 uM by Kinomescan method relative to control
[7] = target: Mitogen-activated protein kinase kinase kinase 19 (Homo sapiens) (UniProt Q56UN5); assay: Inhibition of wild-type human partial length YSK4 (T1019 to H1328 residues) expressed in mammalian expression system assessed as residual activity at 1 uM by Kinomescan method relative to control
[8] = target: Serine/threonine-protein kinase Nek3 (Homo sapiens) (UniProt P51956); assay: Inhibition of wild-type human full length NEK3 (M1 to R506 residues) expressed in mammalian expression system assessed as residual activity at 1 uM by Kinomescan method relative to control
[9] = target: Ribosomal protein S6 kinase alpha-4 (Homo sapiens) (UniProt O75676); assay: Inhibition of wild-type human partial length N-terminal RPS6KA4 kinase domain 1 expressed in bacterial expression system assessed as residual activity at 1 uM by Kinomescan method relative to control
[10] = target: Aurora kinase B (Homo sapiens) (UniProt Q96GD4); assay: Inhibition of wild-type human partial length AURKB (D25 to A303 residues) expressed in mammalian expression system assessed as residual activity at 1 uM by Kinomescan method relative to control
[11] = test system: Phosphatidylinositol 4,5-bisphosphate 3-kinase catalytic subunit alpha isoform (Homo sapiens), P42336 [E542K]; assay: Inhibition of human partial length PIK3CA E542K mutant (R108 to N1068 residues) expressed in mammalian expression system assessed as residual activity at 1 uM by Kinomescan method relative to control
[12] = target: Interferon-induced, double-stranded RNA-activated protein kinase (Homo sapiens) (UniProt P19525); assay: Inhibition of wild-type human partial length PRKR (F247 to C551 residues) expressed in bacterial expression system assessed as residual activity at 1 uM by Kinomescan method relative to control
[13] = test system: Mast/stem cell growth factor receptor Kit (Homo sapiens), P10721 [D816H]; assay: Inhibition of human partial length KIT D816H mutant (I571 to D952 residues) expressed in mammalian expression system assessed as residual activity at 1 uM by Kinomescan method relative to control
[14] = target: Serine/threonine-protein kinase MRCK gamma (Homo sapiens) (UniProt Q6DT37); assay: Inhibition of wild-type human partial length DMPK2 (S46 to S408 residues) expressed in bacterial expression system assessed as residual activity at 1 uM by Kinomescan method relative to control
[15] = target: Mitogen-activated protein kinase kinase kinase 10 (Homo sapiens) (UniProt Q02779); assay: Inhibition of wild-type human partial length MLK2 (V52 to W380 residues) expressed in bacterial expression system assessed as residual activity at 1 uM by Kinomescan method relative to control
[16] = target: Phosphatidylinositol 4-phosphate 5-kinase type-1 gamma (Homo sapiens) (UniProt O60331); assay: Inhibition of wild-type human partial length PIP5K1C (M1 to T668 residues) expressed in mammalian expression system assessed as residual activity at 1 uM by Kinomescan method relative to control
[17] = target: Mitogen-activated protein kinase 14 (Homo sapiens) (UniProt Q16539); assay: Inhibition of wild-type human full length p38-alpha (M1 to S360 residues) expressed in bacterial expression system assessed as residual activity at 1 uM by Kinomescan method relative to control
[18] = target: Mitogen-activated protein kinase kinase kinase kinase 1 (Homo sapiens) (UniProt Q92918); assay: Inhibition of wild-type human full length HPK1 (M1 to R799 residues) expressed in bacterial expression system assessed as residual activity at 1 uM by Kinomescan method relative to control
[19] = target: Ribosomal protein S6 kinase alpha-2 (Homo sapiens) (UniProt Q15349); assay: Inhibition of wild-type human partial length C-terminal RSK3 kinase domain 2 (V403 to K700 residues) expressed in bacterial expression system assessed as residual activity at 1 uM by Kinomescan method relative to control
[20] = target: SRSF protein kinase 3 (Homo sapiens) (UniProt Q9UPE1); assay: Inhibition of wild-type human partial length SRPK3 (P41 to P567 residues) expressed in bacterial expression system assessed as residual activity at 1 uM by Kinomescan method relative to control
[21] = test system: eIF-2-alpha kinase GCN2 (Homo sapiens), Q9P2K8 [S808G]; assay: Inhibition of […] human partial length GCN2 kinase domain 2 (R585 to T1018 residues) S808G mutant expressed in bacterial expression system assessed as residual activity at 1 uM by Kinomescan method relative to control
[22] = target: Tyrosine-protein kinase ZAP-70 (Homo sapiens) (UniProt P43403); assay: Inhibition of wild-type human partial length ZAP70 (D20 to G299 residues) expressed in mammalian expression system assessed as residual activity at 1 uM by Kinomescan method relative to control
[23] = target: Tyrosine-protein kinase ABL1 (Homo sapiens) (UniProt P00519); assay: Inhibition of wild-type human non-phosphorylated ABL1 (S229 to K512 residues) expressed in mammalian expression system assessed as residual activity at 1 uM by Kinomescan method relative to control
[24] = target: Serine/threonine-protein kinase TAO1 (Homo sapiens) (UniProt Q7L7X3); assay: Inhibition of wild-type human partial length TAOK1 (M1 to A320 residues) expressed in mammalian expression system assessed as residual activity at 1 uM by Kinomescan method relative to control

Chain of Mitogen-activated protein kinase kinase kinase kinase 1 (Homo sapiens) (Q92918 whole entry, looked up, the tested form may be a part): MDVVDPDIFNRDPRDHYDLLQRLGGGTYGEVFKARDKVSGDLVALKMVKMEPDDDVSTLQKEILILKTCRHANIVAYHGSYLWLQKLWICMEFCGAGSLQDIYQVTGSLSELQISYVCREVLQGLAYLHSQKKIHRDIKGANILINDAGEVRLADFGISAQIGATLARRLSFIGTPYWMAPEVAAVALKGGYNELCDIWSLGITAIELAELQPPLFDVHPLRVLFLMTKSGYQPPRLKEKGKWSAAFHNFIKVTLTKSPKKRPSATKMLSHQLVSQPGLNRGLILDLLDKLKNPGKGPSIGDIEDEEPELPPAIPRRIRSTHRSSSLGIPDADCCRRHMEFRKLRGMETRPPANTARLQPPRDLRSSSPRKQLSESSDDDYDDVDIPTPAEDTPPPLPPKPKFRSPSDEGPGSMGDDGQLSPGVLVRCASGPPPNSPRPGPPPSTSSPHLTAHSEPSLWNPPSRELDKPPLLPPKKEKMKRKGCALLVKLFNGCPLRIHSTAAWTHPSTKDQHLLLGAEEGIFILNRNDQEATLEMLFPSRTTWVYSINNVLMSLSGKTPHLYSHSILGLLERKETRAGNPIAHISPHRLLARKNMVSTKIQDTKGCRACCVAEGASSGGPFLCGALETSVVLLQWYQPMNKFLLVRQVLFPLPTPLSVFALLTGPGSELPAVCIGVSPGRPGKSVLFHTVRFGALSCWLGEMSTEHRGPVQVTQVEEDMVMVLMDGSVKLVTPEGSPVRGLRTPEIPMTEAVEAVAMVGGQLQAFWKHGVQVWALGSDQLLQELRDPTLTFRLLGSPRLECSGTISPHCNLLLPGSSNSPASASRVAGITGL
Chain of eIF-2-alpha kinase GCN2 (Homo sapiens), Q9P2K8 [S808G] (Q9P2K8 whole entry S808G, the tested form may be a part): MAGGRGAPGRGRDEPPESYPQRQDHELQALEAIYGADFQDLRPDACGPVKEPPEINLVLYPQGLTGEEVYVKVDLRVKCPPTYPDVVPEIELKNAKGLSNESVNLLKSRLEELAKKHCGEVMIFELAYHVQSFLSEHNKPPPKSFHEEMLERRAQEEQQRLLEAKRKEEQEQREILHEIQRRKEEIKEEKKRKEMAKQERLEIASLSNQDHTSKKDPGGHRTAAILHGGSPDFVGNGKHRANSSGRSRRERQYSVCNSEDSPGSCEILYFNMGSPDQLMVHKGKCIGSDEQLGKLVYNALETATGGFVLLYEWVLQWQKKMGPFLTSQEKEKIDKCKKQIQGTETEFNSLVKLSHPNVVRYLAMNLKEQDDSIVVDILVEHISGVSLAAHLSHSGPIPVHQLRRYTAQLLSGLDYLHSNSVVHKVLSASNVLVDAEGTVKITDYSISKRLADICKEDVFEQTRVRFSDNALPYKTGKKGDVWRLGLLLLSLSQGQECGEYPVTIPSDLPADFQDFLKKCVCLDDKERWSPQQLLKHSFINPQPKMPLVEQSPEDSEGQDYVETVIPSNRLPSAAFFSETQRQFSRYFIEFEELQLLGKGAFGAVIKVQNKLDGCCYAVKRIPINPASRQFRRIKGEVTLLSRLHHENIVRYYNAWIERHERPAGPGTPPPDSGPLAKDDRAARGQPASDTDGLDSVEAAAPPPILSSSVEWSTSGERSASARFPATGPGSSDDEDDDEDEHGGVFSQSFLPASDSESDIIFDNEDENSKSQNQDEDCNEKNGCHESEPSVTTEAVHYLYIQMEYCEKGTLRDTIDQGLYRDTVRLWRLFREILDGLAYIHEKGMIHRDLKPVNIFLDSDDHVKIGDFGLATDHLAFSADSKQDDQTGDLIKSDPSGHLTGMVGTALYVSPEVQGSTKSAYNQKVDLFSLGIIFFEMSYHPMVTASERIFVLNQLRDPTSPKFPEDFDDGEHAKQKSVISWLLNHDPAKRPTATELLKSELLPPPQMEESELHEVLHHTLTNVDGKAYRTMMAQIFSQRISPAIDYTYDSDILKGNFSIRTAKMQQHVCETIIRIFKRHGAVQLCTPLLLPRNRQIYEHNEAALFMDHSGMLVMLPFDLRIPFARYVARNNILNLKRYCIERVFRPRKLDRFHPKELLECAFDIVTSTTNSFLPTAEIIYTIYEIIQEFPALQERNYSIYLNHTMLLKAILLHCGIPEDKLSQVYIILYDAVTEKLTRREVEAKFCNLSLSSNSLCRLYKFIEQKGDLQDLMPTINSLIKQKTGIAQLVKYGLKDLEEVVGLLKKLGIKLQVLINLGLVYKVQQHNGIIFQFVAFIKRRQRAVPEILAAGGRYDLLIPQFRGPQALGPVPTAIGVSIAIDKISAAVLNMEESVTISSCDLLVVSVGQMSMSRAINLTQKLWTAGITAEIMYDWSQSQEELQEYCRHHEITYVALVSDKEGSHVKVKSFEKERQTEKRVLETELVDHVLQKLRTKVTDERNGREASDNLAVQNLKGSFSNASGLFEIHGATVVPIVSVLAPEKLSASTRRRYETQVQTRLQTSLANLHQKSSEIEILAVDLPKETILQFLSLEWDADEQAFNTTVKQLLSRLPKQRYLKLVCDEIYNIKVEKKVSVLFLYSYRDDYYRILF
Chain of Ribosomal protein S6 kinase alpha-2 (Homo sapiens) (Q15349 whole entry, the tested form may be a part): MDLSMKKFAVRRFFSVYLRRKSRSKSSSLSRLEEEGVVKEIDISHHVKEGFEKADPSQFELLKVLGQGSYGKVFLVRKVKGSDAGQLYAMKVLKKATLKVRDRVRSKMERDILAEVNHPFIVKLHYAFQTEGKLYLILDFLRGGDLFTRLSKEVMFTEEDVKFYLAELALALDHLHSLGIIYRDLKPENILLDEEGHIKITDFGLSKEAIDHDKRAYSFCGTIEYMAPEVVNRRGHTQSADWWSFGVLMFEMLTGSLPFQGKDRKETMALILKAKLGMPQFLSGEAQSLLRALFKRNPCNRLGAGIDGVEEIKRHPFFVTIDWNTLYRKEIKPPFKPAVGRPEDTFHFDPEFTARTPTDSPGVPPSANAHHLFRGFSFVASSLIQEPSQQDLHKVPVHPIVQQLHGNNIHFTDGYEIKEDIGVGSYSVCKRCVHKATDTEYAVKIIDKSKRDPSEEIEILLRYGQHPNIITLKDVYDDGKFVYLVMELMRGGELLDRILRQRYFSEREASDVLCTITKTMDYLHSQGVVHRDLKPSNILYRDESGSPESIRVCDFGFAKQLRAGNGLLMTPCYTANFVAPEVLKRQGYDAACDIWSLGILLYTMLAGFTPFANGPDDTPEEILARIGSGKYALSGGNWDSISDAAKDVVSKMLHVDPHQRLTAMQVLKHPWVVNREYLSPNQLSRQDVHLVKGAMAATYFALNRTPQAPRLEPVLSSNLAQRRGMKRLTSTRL
Chain of Phosphatidylinositol 4-phosphate 5-kinase type-1 gamma (Homo sapiens) (O60331 whole entry, the tested form may be a part): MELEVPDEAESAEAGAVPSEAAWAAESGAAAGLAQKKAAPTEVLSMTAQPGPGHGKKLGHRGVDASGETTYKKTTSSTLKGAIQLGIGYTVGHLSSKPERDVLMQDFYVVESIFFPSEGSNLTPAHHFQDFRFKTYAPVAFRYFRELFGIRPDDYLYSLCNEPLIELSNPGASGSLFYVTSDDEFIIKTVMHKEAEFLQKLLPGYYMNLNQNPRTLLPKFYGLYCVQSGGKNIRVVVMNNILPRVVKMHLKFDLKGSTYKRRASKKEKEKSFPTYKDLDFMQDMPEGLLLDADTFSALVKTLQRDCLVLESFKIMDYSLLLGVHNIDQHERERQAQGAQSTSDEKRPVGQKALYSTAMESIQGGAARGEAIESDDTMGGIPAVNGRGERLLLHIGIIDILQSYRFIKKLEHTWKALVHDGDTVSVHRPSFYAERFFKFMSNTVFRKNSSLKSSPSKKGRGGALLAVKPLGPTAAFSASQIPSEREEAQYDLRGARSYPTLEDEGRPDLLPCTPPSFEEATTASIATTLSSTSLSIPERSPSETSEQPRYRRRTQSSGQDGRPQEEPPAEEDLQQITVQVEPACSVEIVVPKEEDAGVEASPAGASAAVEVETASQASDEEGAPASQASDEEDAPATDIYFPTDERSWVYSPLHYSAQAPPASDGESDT
Chain of Interleukin-1 receptor-associated kinase 4 (Homo sapiens) (Q9NWZ3 whole entry, the tested form may be a part): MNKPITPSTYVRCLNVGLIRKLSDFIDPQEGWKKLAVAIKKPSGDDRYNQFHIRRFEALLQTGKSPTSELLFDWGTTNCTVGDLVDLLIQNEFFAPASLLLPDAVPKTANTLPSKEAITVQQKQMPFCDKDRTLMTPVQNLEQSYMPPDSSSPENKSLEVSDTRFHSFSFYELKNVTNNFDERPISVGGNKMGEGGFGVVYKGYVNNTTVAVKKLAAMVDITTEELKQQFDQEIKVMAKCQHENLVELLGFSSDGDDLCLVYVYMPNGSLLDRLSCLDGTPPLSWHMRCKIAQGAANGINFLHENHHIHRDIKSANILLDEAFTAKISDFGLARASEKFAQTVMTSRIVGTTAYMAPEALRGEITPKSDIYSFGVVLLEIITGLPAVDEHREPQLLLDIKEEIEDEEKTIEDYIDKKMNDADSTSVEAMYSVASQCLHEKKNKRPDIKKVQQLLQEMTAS
Chain of Tyrosine-protein kinase ZAP-70 (Homo sapiens) (P43403 whole entry, the tested form may be a part): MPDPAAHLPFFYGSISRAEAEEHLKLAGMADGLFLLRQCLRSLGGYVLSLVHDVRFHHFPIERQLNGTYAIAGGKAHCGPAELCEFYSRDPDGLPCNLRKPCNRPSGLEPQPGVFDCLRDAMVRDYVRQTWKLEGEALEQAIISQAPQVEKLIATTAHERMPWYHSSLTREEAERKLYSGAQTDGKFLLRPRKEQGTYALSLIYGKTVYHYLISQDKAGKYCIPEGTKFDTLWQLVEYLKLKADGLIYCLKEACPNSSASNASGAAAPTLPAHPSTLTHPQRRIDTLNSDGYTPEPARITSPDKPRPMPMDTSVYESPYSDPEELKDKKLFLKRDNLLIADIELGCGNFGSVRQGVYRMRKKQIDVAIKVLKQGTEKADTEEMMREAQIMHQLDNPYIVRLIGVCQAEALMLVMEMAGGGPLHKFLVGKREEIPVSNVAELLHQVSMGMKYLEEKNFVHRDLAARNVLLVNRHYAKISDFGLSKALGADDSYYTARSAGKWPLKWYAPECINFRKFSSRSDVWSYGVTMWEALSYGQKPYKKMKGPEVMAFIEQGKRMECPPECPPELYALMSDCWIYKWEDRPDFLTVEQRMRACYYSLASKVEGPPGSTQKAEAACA

**Q.** Which Activity [1] does the source give for `C=CC(=O)Nc1cc(Nc2cc(-c3cccc(NC(=O)c4ccc(C(C)(C)C)cc4)c3C)cn(C)c2=O)ccc1C(=O)N1CCOCC1` here?
**A.** The Activity was 100%.

**Q.** And the Activity [2]?
**A.** Its Activity is 99%.

**Q.** What about the Activity [3] of the same compound?
**A.** Its Activity is 90%.

**Q.** What about the Activity [4] of the same compound?
**A.** Its Activity is 100%.

**Q.** What about the Activity [5] of the same compound?
**A.** Its Activity is 92%.

**Q.** What about the Activity [6] of the same compound?
**A.** The Activity was 89%.

**Q.** And the Activity [7]?
**A.** Its Activity is 100%.

**Q.** What about the Activity [8] of the same compound?
**A.** Its Activity is 97%.

**Q.** And the Activity [9]?
**A.** Its Activity is 97%.

**Q.** What about the Activity [10] of the same compound?
**A.** The Activity was 98%.

**Q.** And the Activity [11]?
**A.** The Activity was 94%.

**Q.** What about the Activity [12] of the same compound?
**A.** The Activity was 100%.

**Q.** What about the Activity [13] of the same compound?
**A.** The Activity was 94%.

**Q.** What about the Activity [14] of the same compound?
**A.** Its Activity is 100%.

**Q.** What about the Activity [15] of the same compound?
**A.** The Activity was 100%.

**Q.** And the Activity [16]?
**A.** The Activity was 100%.

**Q.** What about the Activity [17] of the same compound?
**A.** Its Activity is 100%.

**Q.** And the Activity [18]?
**A.** The Activity was 100%.

**Q.** What about the Activity [19] of the same compound?
**A.** Its Activity is 83%.

**Q.** And the Activity [20]?
**A.** The Activity was 81%.

**Q.** And the Activity [21]?
**A.** Its Activity is 100%.

**Q.** And the Activity [22]?
**A.** Its Activity is 100%.

**Q.** And the Activity [23]?
**A.** The Activity was 100%.

**Q.** What about the Activity [24] of the same compound?
**A.** Its Activity is 100%.
